Data reported in publication PMC7468108 (Communications Biology, 2020).

Key:
Aβ42 = target: T1, Aβ42 (Homo sapiens, UniProt P05067); experiment: ThT-binding assay, inhibition of Aβ42 aggregation; assay type: biochemical; conditions: any molar ratio (5:1, 1:1, 1:5)
T1 construct: purchased rPeptide (USA)
Description: ThT is known to intercalate within the amyloid fibrils resulting in fluorescence emission proportionate to the amyloid growth.
(§1) The resulting thin films were dissolved in PBS (100 mM, pH 7.4) and sonicated for 5 min to get a stock concentration of 50 µM, which immediately diluted to required concentration for an experiment. Stock solutions of ThT (4 mM in PBS) and hybrid molecules (10 mM in PBS) were prepared. All the stock solutions were diluted according to the requirement.
The experiment was performed according to the previous report. […] […] Excitation and emission wavelengths were set at 440 nm and 485 nm, respectively.

hIAPP = target: T2, hIAPP (Homo sapiens, UniProt P10997); experiment: ThT-binding assay, inhibition of hIAPP aggregation; assay type: biochemical; conditions: molar ratios 5:1, 1:1, 1:5
T2 construct: hIAPP is a 37-amino acid neuroendocrine peptide hormone; purchased Peptide 2.0 (USA)
T2 sequence (P10997 34-70 limits assumed): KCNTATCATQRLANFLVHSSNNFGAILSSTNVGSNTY
Description: A similar inhibitory effect by the hybrid molecules was found toward hIAPP aggregation. […] Upon co-incubation of hIAPP with the hybrid molecules, a dose-response inhibition of hIAPP fibril formation was observed (Fig. 2d, e and Supplementary Fig. 3). […] Also, for IAPP, the marginally stronger inhibitory effect of WGalNAc was statistically significant (Supplementary Fig. 2b).
as §1
The experiment was performed according to the previous report. […] Kinetics fluorescence data were collected at 37 °C in triplicate using Infinite M200 microplate reader (Tecan, Switzerland), with measurements acquired at 15 min intervals. Excitation and emission wavelengths were set at 440 nm and 485 nm, respectively.

T1 sequence (P05067 672-713 limits assumed): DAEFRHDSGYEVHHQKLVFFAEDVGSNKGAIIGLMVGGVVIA

| SMILES | inhibition of Aβ42 fibril formation (ThT), in words (Aβ42) | inhibition of hIAPP fibril formation (ThT), in words (hIAPP) |
| --- | --- | --- |
| N[C@@H]1O[C@H](CO)[C@H](O)[C@H](O)[C@H]1O [galactosylamine, 1-amino-1-deoxy-β-D-galactose] | no inhibition effect | No inhibitory effect |
| N[C@@H](Cc1c[nH]c2ccccc12)C(=O)O [tryptophan] | no inhibition effect | No inhibitory effect |
